Assay results reported in patent US20120107239A1, “Precursor of Molecular Probe for Pancreatic Islet Imaging and Use of the Same” (priority 2009, published 2012).
pEC50: −log10 of the molar value.

Columns and labels:
pancreatic islets = test: Three-dimensional imaging (PET) of a mouse; type: in vivo; conditions: 104 μCi intravenously, ddy mouse, image 10 minutes after administration, FIG. 3
Method: The molecular probe (compound (6)) was used to perform three-dimensional imaging of a mouse. The molecular probe (104 μCi) was administered intravenously to a 6-week-old ddy mouse (which was male and weighted 25 g) under anesthesia. Then, the three-dimensional imaging was performed with the following PET apparatus and conditions.
Imaging apparatus: eXplore Vista (product name, manufactured by General Electric Company)
Imaging method: Static Scan
Reconstruction: 2DOSEM (Dynamic OS-EM)
The image in FIG. 3 was taken 10 minutes after the administration of the molecular probe (integrating time: 10 minutes). In FIG. 3, the portion indicated by the white circle is near the pancreas.

SU receptor = target: T1, SU receptor (Mus musculus, UniProt B2RUS7); test: SU receptor binding experiment ([3H]-glibenclamide displacement on dispersed pancreatic islet cells); set-up: species or system mice
T1 construct: the pancreatic islets isolated from the mice were dispersed into single cells; from tissue; host or cells: single cells dispersed from isolated mouse pancreatic islets
T1 sequence (B2RUS7 1-1588): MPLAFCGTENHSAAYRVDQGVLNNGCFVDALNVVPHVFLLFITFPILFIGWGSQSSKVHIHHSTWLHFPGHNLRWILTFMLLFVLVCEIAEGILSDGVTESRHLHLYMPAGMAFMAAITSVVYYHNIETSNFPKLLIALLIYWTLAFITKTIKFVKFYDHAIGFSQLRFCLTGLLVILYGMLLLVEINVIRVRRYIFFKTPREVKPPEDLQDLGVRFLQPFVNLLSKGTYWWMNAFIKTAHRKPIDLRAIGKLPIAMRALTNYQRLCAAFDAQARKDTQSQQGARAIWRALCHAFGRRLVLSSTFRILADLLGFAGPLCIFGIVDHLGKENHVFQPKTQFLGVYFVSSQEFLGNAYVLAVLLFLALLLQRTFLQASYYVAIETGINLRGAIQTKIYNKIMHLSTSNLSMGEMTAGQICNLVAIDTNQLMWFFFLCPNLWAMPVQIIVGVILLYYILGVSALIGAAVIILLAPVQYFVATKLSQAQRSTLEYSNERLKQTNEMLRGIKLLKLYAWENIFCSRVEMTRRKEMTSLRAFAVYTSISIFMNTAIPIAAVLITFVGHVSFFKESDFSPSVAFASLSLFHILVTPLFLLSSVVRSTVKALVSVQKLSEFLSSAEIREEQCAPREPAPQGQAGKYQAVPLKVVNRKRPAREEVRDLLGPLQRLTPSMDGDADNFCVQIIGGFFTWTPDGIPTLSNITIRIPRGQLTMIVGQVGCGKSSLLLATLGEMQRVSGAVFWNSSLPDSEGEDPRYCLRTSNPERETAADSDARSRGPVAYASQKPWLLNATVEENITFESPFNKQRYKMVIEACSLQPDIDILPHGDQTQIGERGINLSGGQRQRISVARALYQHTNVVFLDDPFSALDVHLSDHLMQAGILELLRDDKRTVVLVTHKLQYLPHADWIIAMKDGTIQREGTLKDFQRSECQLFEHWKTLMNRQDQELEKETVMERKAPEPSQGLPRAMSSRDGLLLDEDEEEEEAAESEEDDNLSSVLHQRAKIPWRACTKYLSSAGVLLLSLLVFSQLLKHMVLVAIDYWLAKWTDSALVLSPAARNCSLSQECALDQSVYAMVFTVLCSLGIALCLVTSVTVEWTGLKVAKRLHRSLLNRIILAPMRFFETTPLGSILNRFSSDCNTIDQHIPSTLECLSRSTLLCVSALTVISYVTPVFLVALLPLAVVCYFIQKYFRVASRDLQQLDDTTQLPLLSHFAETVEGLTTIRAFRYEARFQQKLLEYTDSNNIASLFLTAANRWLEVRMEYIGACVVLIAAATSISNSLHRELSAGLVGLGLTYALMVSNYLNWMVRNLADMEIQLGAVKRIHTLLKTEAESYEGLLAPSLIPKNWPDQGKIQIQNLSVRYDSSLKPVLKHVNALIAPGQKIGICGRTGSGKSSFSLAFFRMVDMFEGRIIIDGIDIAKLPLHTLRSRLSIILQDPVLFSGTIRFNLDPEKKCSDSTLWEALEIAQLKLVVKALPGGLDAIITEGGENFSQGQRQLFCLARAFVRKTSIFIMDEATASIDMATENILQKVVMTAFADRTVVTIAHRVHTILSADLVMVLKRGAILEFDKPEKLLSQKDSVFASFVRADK
T1 sequence (Q61743 whole entry partner): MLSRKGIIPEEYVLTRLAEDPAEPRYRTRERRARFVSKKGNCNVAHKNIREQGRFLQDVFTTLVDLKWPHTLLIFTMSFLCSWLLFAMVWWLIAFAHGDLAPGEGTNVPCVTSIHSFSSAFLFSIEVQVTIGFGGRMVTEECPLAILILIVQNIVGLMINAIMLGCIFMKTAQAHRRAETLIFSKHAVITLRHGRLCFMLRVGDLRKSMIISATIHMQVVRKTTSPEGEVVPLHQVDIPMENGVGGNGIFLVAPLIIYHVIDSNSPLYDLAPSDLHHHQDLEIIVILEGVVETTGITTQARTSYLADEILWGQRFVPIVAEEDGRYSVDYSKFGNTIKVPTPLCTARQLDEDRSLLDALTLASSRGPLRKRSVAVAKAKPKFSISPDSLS
Method: Next, the pancreatic islets isolated from the mice were dispersed into single cells to prepare 1.7×10^5 cells/sample. A solution containing [^3H]-glibendamide; which was obtained by labeling glibenclamide (4-[2-(5-Chloro-2-methoxybenzoylammo)ethyl]-N-(cyclohexylcarbamoyl)benzenesulfon amide, serving as an SU agent) with ^3H, was added to these cells so that the final concentration of the [^3H]-glibenclamide was 1.85 pmol/L. Subsequently, a reagent containing the compound (7) was added (final concentration of the compound (7): 1×10^−4 to 1×10^−12 M), and incubation was performed at room temperature for 1 hour. The reaction was stopped by filtration, and the radioactivity was measured with a liquid scintillation analyzer.
Therefore, the molecular probe expressed as the formula (7) might have a SUR1 binding site.

SUR1 = SUR1 (Homo sapiens, UniProt Q09428); conditions: compared with nateglinide; cited from earlier work
Chain of SUR1 (Q09428 whole entry, species assumed): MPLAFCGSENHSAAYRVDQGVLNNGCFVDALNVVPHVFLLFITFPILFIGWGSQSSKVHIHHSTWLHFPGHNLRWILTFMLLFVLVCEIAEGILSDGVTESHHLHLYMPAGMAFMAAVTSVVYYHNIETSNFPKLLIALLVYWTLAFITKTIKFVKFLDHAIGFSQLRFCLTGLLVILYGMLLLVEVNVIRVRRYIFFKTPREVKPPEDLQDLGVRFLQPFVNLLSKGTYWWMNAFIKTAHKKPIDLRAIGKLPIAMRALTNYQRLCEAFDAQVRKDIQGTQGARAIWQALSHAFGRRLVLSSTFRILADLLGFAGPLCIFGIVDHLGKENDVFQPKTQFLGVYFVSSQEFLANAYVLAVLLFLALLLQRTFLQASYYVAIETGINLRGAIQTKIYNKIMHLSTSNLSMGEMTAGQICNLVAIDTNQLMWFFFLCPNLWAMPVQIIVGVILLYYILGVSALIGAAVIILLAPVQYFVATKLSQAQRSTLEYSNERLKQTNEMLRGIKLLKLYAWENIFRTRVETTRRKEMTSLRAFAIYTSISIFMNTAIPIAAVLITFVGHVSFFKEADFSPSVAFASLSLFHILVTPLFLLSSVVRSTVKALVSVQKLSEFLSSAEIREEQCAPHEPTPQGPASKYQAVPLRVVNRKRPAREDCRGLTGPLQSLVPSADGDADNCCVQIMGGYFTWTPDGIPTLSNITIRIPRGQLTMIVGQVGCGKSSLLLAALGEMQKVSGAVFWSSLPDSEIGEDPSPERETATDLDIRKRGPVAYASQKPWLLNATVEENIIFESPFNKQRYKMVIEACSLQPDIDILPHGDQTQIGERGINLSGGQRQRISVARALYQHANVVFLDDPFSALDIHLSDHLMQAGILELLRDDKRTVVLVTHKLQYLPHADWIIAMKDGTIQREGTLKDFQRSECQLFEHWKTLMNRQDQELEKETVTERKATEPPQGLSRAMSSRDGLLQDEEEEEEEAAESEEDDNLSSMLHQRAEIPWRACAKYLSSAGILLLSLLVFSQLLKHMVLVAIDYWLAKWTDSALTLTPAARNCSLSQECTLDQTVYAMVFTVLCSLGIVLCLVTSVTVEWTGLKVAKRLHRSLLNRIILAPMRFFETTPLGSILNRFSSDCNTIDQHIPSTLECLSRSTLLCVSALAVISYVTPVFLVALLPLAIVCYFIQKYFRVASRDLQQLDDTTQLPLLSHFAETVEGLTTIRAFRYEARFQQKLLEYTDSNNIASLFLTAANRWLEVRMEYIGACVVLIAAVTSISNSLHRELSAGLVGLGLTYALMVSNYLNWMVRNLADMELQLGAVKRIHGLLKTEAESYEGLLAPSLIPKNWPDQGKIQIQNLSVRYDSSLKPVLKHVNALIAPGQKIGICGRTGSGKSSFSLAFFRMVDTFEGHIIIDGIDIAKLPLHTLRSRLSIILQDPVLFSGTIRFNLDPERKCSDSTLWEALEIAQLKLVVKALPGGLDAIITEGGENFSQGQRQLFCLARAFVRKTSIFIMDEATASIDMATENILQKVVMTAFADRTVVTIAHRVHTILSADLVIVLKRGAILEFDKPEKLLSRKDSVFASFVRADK
Chain of SUR1 (Q14654 whole entry partner, species assumed): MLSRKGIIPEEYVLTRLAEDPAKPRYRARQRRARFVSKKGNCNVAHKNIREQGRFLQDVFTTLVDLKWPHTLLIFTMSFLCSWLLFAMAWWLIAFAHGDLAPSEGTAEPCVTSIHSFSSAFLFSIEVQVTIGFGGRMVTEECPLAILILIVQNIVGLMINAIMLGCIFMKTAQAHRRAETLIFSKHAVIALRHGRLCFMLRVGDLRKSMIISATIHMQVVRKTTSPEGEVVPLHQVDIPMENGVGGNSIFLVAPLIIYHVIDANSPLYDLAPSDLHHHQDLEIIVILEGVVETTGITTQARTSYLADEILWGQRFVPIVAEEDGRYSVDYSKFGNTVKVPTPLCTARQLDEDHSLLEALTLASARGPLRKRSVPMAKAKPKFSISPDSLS

O=C(O)C(CC(=O)N1C[C@H]2CCCC[C@H]2C1)Cc1ccc(OCC[18F])cc1 (stereo partly shown) [compound (6)]
PET imaging result (distinguishing the pancreas) (pancreatic islets): the approximate position of the pancreas could be distinguished noninvasively

O=C(O)[C@H](CC(=O)N1C[C@H]2CCCC[C@H]2C1)Cc1ccc(OCCF)cc1 [compound (7)]
inhibition of the bond between the SU receptor and [3H]-glibenclamide (SU receptor; compound 1×10^−4 to 1×10^−12 M, FIG. 2): inhibited the bond between the SU receptor and the [^3H]-glibenclamide in the concentration-dependent manner | pEC50 (SU receptor; inhibition of [3H]-glibenclamide (1.85 pmol/L) binding, mouse islet cells 1.7×10^5 cells/sample, room temperature, 1 hour): 7.63

O=C(O)[C@H](CC(=O)N1C[C@H]2CCCC[C@H]2C1)Cc1ccccc1 [mitiglinide, (+)-monocalcium bis [(2S, 3a, 7a-cis)-α-benzylhexahydro-γ-oxo-2-isoindolinebutyrate]dihydrate]
selectivity for SUR1 in vitro relative to nateglinide (SUR1): about 100 times
